Experimental data reported in PMC12638379, “An innovative approach to development of new pyrazolylquinolin-2-one hybrids as dual EGFR and BRAF^V600E inhibitors” (Molecular Diversity, 2025).
Where two headings read alike, the source gives them in different places.

Tested on: NCI 60 cancer cell lines
Assay: NCI anticancer screening over a panel of 60 cancer cells, single concentration 10 µM
Format: cell-based, human
Settings: Homo sapiens, read-out: % Growth Inhibition (GI %)
Description: Ten final compounds 4a–j and five intermediates 2a–e have been selected by the National Cancer Institute (NCI) for anticancer screening over a panel of 60 cancer cells that cover a variety of histological tissues, including the central nervous system, leukemia, lung, colon, kidney, ovary, breast, and prostate, using the protocol established by the National Cancer Institute (NCI). In a primary screening, each compound was screened at a concentration of 10 µM.
Compounds 2a-e and 4a-j were selected by the National Cancer Institute (NCI) according to the protocol of the Compound Evaluation Branch of the National Cancer Institute, Bethesda, USA, for in vitro anticancer screening which refers in turn to apoptotic activity. The methodology of the NCI anticancer screening has been described in detail elsewhere (http://www.dtp.nci.nih.gov).

## COc1ccc2[nH]c(=O)cc(-n3ncc(/C(C)=N/Nc4ccc(S(N)(=O)=O)cc4)c3C)c2c1 [Compound 4c, (E)-4-(2-(1-(1-(6-methoxy-2-oxo-1,2-dihydroquinolin-4-yl)-5-methyl-1H-pyrazol-4-yl)ethylidene)hydrazineyl)benzenesulfonamide]
786-0, Renal cancer 786-0, 10 μM
  inhibition at 10 µM: < 5%
A498, Renal cancer A498, 10 μM
  inhibition at 10 µM: 7.1%
A549, Non-small cell lung cancer A549/ATCC, 10 μM
  inhibition at 10 µM: < 5%
ACHN, Renal cancer ACHN, 10 μM
  inhibition at 10 µM: < 5%
BT-549, Breast cancer BT-549, 10 μM
  inhibition at 10 µM: < 5%
CAKI-1, Renal cancer CAKI-1, 10 μM
  inhibition at 10 µM: < 5%
CCRF-CEM, Leukemia CCRF-CEM, 10 μM
  inhibition at 10 µM: < 5%
COLO 205, Colon cancer COLO 205, 10 μM
  inhibition at 10 µM: < 5%
DU-145, Prostate cancer DU-145, 10 μM
  inhibition at 10 µM: < 5%
HCC 2998, Colon cancer HCC-2998, 10 μM
  inhibition at 10 µM: < 5%
HCT-116, Colon cancer HCT-116, 10 μM
  inhibition at 10 µM: < 5%
HL-60, Leukemia HL-60(TB), 10 μM
  inhibition at 10 µM: < 5%
HOP-92, Non-small cell lung cancer HOP-92, 10 μM
  inhibition at 10 µM: < 5%
HT-29, Colon cancer HT29, 10 μM
  inhibition at 10 µM: < 5%
IGROV-1, Ovarian cancer IGROV1, 10 μM
  inhibition at 10 µM: < 5%
K562, Leukemia K-562, 10 μM
  inhibition at 10 µM: < 5%
KM12, Colon cancer KM12, 10 μM
  inhibition at 10 µM: < 5%
Leukemia SR, 10 μM
  inhibition at 10 µM: 13%
MCF7, Breast cancer MCF7, 10 μM
  inhibition at 10 µM: 6.69%
MDA-MB-231, Breast cancer MDA-MB-231/ATCC, 10 μM
  inhibition at 10 µM: 8.98%
MDA-MB-435, Melanoma MDA-MB-435, 10 μM
  inhibition at 10 µM: < 5%
MDA-MB-468, Breast cancer MDA-MB-468, 10 μM
  inhibition at 10 µM: 7.22%
MOLT-4, Leukemia MOLT-4, 10 μM
  inhibition at 10 µM: < 5%
Melanoma M14, 10 μM
  inhibition at 10 µM: < 5%
Melanoma MALM-3M, 10 μM
  inhibition at 10 µM: 10.6%
NCI-H23, Non-small cell lung cancer NCI-H23, 10 μM
  inhibition at 10 µM: 6%
NCI-H226, Non-small cell lung cancer NCI-H226, 10 μM
  inhibition at 10 µM: 8.4%
NCI-H460, Non-small cell lung cancer NCI-H460, 10 μM
  inhibition at 10 µM: < 5%
NCI-H522, Non-small cell lung cancer NCI-H522, 10 μM
  inhibition at 10 µM: 11.8%
OVCAR-3, Ovarian cancer OVCAR-3, 10 μM
  inhibition at 10 µM: < 5%
OVCAR-4, Ovarian cancer OVCAR-4, 10 μM
  inhibition at 10 µM: < 5%
OVCAR-5, Ovarian cancer OVCAR-5, 10 μM
  inhibition at 10 µM: < 5%
OVCAR-8, Ovarian cancer OVCAR-8, 10 μM
  inhibition at 10 µM: < 5%
Prostate cancer PC-3, 10 μM
  inhibition at 10 µM: < 5%
RPMI-8226, Leukemia RPMI-8226, 10 μM
  inhibition at 10 µM: < 5%
RXF 393, Renal cancer RXF 393, 10 μM
  inhibition at 10 µM: 6.12%
SF-268, CNS Cancer SF-268, 10 μM
  inhibition at 10 µM: < 5%
SF-295, CNS Cancer SF-295, 10 μM
  inhibition at 10 µM: 10.5%
SF-539, CNS Cancer SF-539, 10 μM
  inhibition at 10 µM: 5.07%
SK-MEL-2, Melanoma SK-MEL-2, 10 μM
  inhibition at 10 µM: < 5%
SK-MEL-5, Melanoma SK-MEL-5, 10 μM
  inhibition at 10 µM: < 5%
SK-MEL-28, Melanoma SK-MEL-28, 10 μM
  inhibition at 10 µM: < 5%
SK-OV-3, Ovarian cancer SK-OV-3, 10 μM
  inhibition at 10 µM: < 5%
SN12C, Renal cancer SN12C, 10 μM
  inhibition at 10 µM: 8.13%
SNB-19, CNS Cancer SNB-19, 10 μM
  inhibition at 10 µM: 5.89%
SNB-75, CNS Cancer SNB-75, 10 μM
  inhibition at 10 µM: < 5%
SW-620, Colon cancer SW-620, 10 μM
  inhibition at 10 µM: < 5%
T47D, Breast cancer T-47D, 10 μM
  inhibition at 10 µM: 12.1%
TK-10, Renal cancer TK-10, 10 μM
  inhibition at 10 µM: < 5%
U-251, CNS Cancer U251, 10 μM
  inhibition at 10 µM: < 5%
UACC-62, Melanoma UACC-62, 10 μM
  inhibition at 10 µM: 5.15%
UACC-257, Melanoma UACC-257, 10 μM
  inhibition at 10 µM: < 5%
UO-31, Renal cancer UO-31, 10 μM
  inhibition at 10 µM: 12.9%
